Assay results taken from article PMC6300358, “Preacinetobactin not acinetobactin is essential for iron uptake by the BauA transporter of the pathogen Acinetobacter baumannii” (eLife, 2018).

Target: T1, BauA (Acinetobacter baumannii, UniProt Q76HJ9)
T1 construct: mature protein (signal peptide removed); residues 33 to 703 well defined in the apo structure
Assay: ITC (Kd […] at Fe3+:siderophore […]; […] at […]) and […] Å crystal structure
Type: binding

T1 sequence (Q76HJ9 entry or part of it): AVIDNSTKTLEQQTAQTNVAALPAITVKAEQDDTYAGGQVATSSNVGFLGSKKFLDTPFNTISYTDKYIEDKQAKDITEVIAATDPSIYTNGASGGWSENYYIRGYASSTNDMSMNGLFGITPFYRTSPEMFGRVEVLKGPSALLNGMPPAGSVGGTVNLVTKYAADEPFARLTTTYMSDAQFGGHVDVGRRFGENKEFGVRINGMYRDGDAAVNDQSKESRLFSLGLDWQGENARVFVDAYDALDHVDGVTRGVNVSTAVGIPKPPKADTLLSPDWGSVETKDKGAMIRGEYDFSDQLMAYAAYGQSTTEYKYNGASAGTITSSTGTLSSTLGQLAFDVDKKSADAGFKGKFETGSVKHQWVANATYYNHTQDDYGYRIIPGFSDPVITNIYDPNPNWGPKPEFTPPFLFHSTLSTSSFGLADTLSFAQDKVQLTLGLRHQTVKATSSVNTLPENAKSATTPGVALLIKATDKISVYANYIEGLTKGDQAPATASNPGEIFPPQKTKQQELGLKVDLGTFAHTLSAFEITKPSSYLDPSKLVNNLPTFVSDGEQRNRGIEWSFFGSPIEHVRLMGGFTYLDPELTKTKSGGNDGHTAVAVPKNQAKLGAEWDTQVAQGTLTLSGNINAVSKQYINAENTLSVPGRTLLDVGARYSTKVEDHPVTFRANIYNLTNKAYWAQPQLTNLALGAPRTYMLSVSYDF

C[C@H]1OC(c2cccc(O)c2O)=N[C@@H]1C(=O)N(O)CCc1cnc[nH]1 [preacinetobactin]
Kd: 83 nM
